The compounds below were run against EGFR (human) (UniProt P00533). Conditions: mcf-10a.
Sequence of EGFR (human) (P00533 whole entry, looked up): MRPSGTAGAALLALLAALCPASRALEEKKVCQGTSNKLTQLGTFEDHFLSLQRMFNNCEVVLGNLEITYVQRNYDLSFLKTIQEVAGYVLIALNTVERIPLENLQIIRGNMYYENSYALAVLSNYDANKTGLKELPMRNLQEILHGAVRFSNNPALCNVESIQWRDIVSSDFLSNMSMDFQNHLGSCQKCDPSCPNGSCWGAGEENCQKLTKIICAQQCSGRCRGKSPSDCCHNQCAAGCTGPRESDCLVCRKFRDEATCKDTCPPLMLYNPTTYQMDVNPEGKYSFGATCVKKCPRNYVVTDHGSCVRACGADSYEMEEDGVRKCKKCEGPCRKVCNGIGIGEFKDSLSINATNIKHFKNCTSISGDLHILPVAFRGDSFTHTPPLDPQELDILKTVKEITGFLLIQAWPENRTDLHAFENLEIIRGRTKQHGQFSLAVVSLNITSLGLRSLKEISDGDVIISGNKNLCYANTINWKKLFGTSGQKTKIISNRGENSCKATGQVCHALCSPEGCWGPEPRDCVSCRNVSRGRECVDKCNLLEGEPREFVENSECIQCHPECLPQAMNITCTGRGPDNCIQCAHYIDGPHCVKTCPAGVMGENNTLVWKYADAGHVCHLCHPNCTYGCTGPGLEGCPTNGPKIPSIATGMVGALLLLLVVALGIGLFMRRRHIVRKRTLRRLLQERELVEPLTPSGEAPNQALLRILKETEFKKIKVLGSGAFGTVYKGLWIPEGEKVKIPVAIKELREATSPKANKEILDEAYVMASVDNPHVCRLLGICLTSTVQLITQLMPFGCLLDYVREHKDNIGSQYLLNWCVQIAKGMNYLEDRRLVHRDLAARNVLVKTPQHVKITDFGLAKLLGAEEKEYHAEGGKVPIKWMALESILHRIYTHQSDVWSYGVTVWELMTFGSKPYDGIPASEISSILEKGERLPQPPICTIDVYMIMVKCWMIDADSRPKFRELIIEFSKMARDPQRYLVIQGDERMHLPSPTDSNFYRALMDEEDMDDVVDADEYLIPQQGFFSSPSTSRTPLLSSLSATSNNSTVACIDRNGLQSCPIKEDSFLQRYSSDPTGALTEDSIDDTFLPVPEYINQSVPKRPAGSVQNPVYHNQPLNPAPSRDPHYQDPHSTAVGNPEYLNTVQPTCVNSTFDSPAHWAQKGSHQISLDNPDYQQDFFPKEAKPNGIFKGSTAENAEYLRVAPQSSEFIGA

Structure (SMILES)	IC50
CCOc1cc2ncnc(Nc3ccc(F)cc3)c2cc1OCC	622 nM
COc1cc2ncnc(Nc3cc(F)cc(C(F)(F)F)c3)c2cc1OC	1630 nM
CCOc1cc2ncnc(Nc3cc(F)cc(C(F)(F)F)c3)c2cc1OCC	> 3000 nM

Now from value to compound:

IC50	Structure (SMILES)
141 nM	CCOc1cc2ncnc(Nc3ccccc3F)c2cc1OCC
179 nM	COc1cc2ncnc(Nc3ccccc3F)c2cc1OC
612 nM	COc1cc2ncnc(Nc3ccc(F)cc3)c2cc1OC
108 nM	CCOc1cc2ncnc(Nc3cccc(Cl)c3)c2cc1OCC
585 nM	COc1cc2ncnc(Nc3cccc(I)c3)c2cc1OC
153 nM	CCOc1cc2ncnc(Nc3cccc(I)c3)c2cc1OCC
78 nM	CCOc1cc2ncnc(Nc3cccc(Br)c3)c2cc1OCC
99 nM	CCOc1cc2ncnc(Nc3cccc(F)c3)c2cc1OCC
188 nM	CCOc1cc2ncnc(NCc3ccc(F)cc3)c2cc1OCC

These compounds were tested against EGFR (mouse) (UniProt P00533). Conditions: baf3.

IC50	Structure (SMILES)
12 nM	O=C(O)c1cc(N(Cc2ccccc2O)Cc2cc(O)ccc2O)ccc1O
20 nM	COc1cc2ncnc(Nc3ccc(F)c(Cl)c3)c2cc1OCCN1CCOCC1
12 nM	O=C(O)c1ccc(-c2cc3c(Nc4cccc(Cl)c4)ncnc3[nH]2)cc1
